Laboratory results: US8530648B2, “Diaza-spiro[5.5]undecanes” (Novartis AG, priority 2009, dated 2013)

Tests used:
C75/Bl6 mice [1] = experiment: Beam Braking Motor Activity Behavior (BBM); assay type: in vivo; conditions: 100 mg/kg p.o.; for BBM: induced inactivity vs controls: in the first 3 hours
Method: Beam Braking Motor Activity Behavior (BBM)
In the morning (9:00 h) of experimental day 1, the animals (C75/Bl6 mice; Janvier, France) are singly placed into home cages (Type 3, only containing sawdust, as well as food and water ad libitum). The cages are put into frames equipped with infrared beams to record the activity/inactivity of the mice (Moti 4.25, TSE Systems, Germany). The first 1.5 days are used for habituation (see Figure). Five minutes before lights-off of the second day, the animals (n=6/groups) are orally treated with vehicle, the compounds or a positive control (e.g. almorexant 100 mg/kg). Then, the animals stay in the setups for the following lights-off period and activity monitored.
The data are expressed as means±SEM (standard error of the means) of these difference scores for each hour as well as for the first four hours after administration, the time period which is most sensible to the effects of sleep-promoting compounds. Statistical analysis of the data is done with Systat 11 software. Since the data are normally distributed, analysis of variance (ANOVA) with treatment as between subject factor and the Dunnett test for post-hoc pairwise comparison were used. Furthermore, Student t-tests are used for single pair wise comparisons.

C75/Bl6 mice [2] = experiment: Sleep Electroencephalography (Sleep EEG); assay type: in vivo; conditions: 100 mg/kg p.o.
Method: Sleep Electroencephalography (Sleep EEG):
The sleep pattern of tethered mice (C75/Bl6 mice; Janvier, France), chronically implanted with cortical EEG electrodes and an EMG electrode (neck muscle), is scored using the rodent scoring module of Somnologica software. Activity is monitored with an infrared sensor placed in the top of the cage and video recordings are collected with a day/night camera and infrared light during the dark phase (12 hours, lights off at 15:00). Mice are repeatedly acclimated to the recording setup and for a minimum of 3 days before each experiment. All treatments occur 5-10 min before lights off. On Day 1 mice are handled and the oral gavage introduced without application, on Day 2 vehicle is applied, on Day 3 compound is applied, and on Day 4 vehicle is applied. 22 hour recordings are scored in 10 s epochs and the total minutes per hour in Active wake (wake with locomotion), Quiet wake, and sleep are determined. Significance (p<0.05) is tested between vehicle and compound with Systat12 using the Restricted Maximum Likelihood test followed by post-hoc analysis using Fisher's Least Significant Differences test when either treatment or the interaction between treatment and hour had p<0.05.

hOx1R [3] = target: T1, hOx1R (Homo sapiens (Human), UniProt O43613); experiment: Calcium accumulation in cells (FLIPR), hOx1R; assay type: cell-based; conditions: inhibition of orexin A induced calcium accumulation, Cheng and Prusoff correction
Method in brief: (§1)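 Cells expressing human orexin 1 or 2 receptor, serum-deprived overnight, loaded with Fluo-4-AM (2 μM) plus 0.1 mM probenecid, pH 7.4 HEPES buffer with 1% BSA.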

hOx2R [4] = target: T2, hOx2R (Homo sapiens (Human), UniProt O43614); experiment: Calcium accumulation in cells (FLIPR), hOx2R; assay type: cell-based; conditions: inhibition of orexin A induced calcium accumulation, Cheng and Prusoff correction
Method in brief: as §1

hOx1R [5] = target: T1, hOx1R; experiment: Radioligand binding assay, [125I]orexin A, hOx1R; conditions: radioligand [125I]orexin A, competition
Method: (§2) For crude cell membrane preparations, cells (CHO, Chinese hamster ovary or HEK, human embryonic kidney) expressing human orexin 1 or human orexin 2 receptors, were washed with HEPES (10 mM, pH 7.5), scraped off the culture plates with the same buffer, and centrifuged at 4° C. for 5 min at 2500×g. The cell pellet was either stored at −80° C. or used directly. Before the experiments, cell membranes were re-suspended in binding assay buffer (10 mM HEPES, 0.5% (w/v) bovine serum albumin, pH 7.5) by homogenisation with a Polytron homogeniser at 50 Hz for 20 s. Cell membranes were also used as made available by commercial providers.
(§3) In initial saturation experiments (to calculate Bmax), cell homogenates (150 μl) were incubated with 25-300 pM of the radioligand ([^125I]orexin A, 50 μl), 8 concentrations in triplicates in the presence or absence Orexin A (1 μM, 50 μl) to define non specific binding. Bound radioactivity was measured, and data were analysed with the program XLFIT or Graphpad Prism. Protein concentration was determined according to the Bradford/BioRad Protein Assay Kit.
(§4) In competition experiments, cell homogenates (150 μl) were incubated in assay buffer (10 mM HEPES, pH 7.5, 0.5% (w/v) bovine serum albumin, 5 mM MgCl2, 1 mM CaCl2, and tween 0.05%) for 1 h at room temperature with about 100 pM of the radioligand ([^125I]orexin A, 2100 Ci/mmole, 50 μl), and with various concentrations of compounds of the invention (50 μl) in triplicates; non-specific binding was determined in the presence of Orexin A (1 μM). Reactions were terminated by vacuum filtration, 3 washes of ice cold wash buffer (Tris-HCl pH 7.4/10 mM, with NaCl 154 mM).

hOx2R [6] = target: T2, hOx2R; experiment: Radioligand binding assay, [125I]orexin A, hOx2R; conditions: radioligand [125I]orexin A, competition
Method: as §2, §3, §4

T2 sequence (O43614 whole entry): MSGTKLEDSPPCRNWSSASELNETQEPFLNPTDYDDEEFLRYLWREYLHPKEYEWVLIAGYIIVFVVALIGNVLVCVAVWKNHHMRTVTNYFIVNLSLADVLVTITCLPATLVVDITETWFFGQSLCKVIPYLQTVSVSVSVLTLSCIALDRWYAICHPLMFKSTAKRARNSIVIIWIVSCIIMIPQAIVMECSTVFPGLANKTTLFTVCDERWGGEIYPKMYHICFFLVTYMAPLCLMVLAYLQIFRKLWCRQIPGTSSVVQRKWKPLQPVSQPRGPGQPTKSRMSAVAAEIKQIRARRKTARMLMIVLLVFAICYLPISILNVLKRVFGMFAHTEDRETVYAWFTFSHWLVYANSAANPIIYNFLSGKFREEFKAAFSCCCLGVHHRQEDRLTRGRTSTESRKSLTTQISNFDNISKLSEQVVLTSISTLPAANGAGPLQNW
T1 sequence (O43613 whole entry): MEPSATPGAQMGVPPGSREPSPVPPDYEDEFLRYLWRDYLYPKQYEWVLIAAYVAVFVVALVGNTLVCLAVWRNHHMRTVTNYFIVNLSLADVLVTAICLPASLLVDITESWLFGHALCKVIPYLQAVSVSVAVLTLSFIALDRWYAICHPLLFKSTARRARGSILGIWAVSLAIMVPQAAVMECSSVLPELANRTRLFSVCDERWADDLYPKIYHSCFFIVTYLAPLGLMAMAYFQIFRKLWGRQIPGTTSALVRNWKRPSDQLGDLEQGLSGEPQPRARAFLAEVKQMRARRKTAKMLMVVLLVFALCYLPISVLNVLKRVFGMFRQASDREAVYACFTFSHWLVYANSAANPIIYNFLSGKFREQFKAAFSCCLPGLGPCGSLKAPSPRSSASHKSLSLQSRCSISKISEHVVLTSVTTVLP

Row | Ki (hOx1R [3]) | Ki (hOx2R [4]) | Kd (hOx1R [5]) | Kd (hOx2R [6]) | Compound | BBM: duration of induced inactivity (C75/Bl6 mice [1]) | BBM: induced inactivity vs controls (C75/Bl6 mice [1]) | Sleep EEG: duration of reduced active wake and increased sleep (C75/Bl6 mice [2]) | Sleep EEG: effect on quiet wake (C75/Bl6 mice [2]) | Sleep EEG: reduction of active wake and increase of sleep vs controls (C75/Bl6 mice [2])
1 |  |  |  |  | CNC(=O)[C@@H](c1ccccc1)N1CCc2cc(OC)c(OC)cc2[C@@H]1CCc1ccc(C(F)(F)F)cc1 [almorexant, reference compound] | 5 to 7 h | 18-21 minutes/hour | 5 to 6 h | without noticeable effect | 9-16 minutes/hour
2 | 314 nM | 30 nM | 374 nM | 42 nM | O=C1N(Cc2c[nH]c3ccccc23)CCCC12CCN(c1cnc3ccccc3n1)CC2 [Example 1, 2-((1H-indol-3-yl)methyl)-9-(quinoxalin-2-yl)-2,9-diazaspiro[5.5]undecan-1-one] | 6 to 7 h | 15-22 minutes/hour | up to 7 hours | minimal effects | 7-16 minutes/hour
